This test concerns the target Peptidyl-prolyl cis-trans isomerase FKBP1A (Homo sapiens, UniProt P62942, F36V). In words: Binding affinity for Mutant F36V-FK506 binding protein by competitive assay based on fluorescence polarization. (In general: In fluorescence polarisation assays a small probe gives low polarisation when free and higher when bound to something large.)

Sequence of Peptidyl-prolyl cis-trans isomerase FKBP1A (P62942 2-108 F37V limits assumed): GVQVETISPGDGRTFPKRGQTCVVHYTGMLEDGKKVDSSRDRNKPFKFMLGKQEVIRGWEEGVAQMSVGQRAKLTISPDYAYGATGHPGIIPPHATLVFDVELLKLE

In general, IC50 refers to the concentration needed to halve the response being measured. A high value points to lower potency. In turn, `CC[C@H](C(=O)N1CCCC[C@H]1C(=O)O[C@H](CCc1ccc(OC)c(OC)c1)c1cccc(OCC(=O)O)c1)c1ccccc1` came in with an IC50 of 40 nM.

`CC[C@H](C(=O)N1CCCC[C@H]1C(=O)O[C@H](CCc1ccc(OC)c(OC)c1)c1cccc(OCC(=O)O)c1)c1cc(OC)c(OC)c(OC)c1` yielded an IC50 of 1.8 nM.

In the case of `C=CC[C@@H](C(=O)N1CCCC[C@H]1C(=O)OC(CCc1ccc(OC)c(OC)c1)c1cccc(OCC(=O)O)c1)c1cc(OC)c(OC)c(OC)c1` (stereo partly drawn), the IC50 was 19 nM.

Turning to `COc1ccc(CCC(OC(=O)[C@@H]2CCCCN2C(=O)[C@@H](C)c2ccccc2)c2cccc(OCC(=O)O)c2)cc1OC` (stereo partly drawn), the IC50 was found to be 94 nM.

Consider `CCC[C@H](C(=O)N1CCCC[C@H]1C(=O)OC(CCc1ccc(OC)c(OC)c1)c1cccc(OCC(=O)O)c1)c1cc(OC)c(OC)c(OC)c1` (stereo partly drawn), for which the IC50 was 3.8 nM. This IC50 lies about 25-fold lower than the previous one.

In turn, `COc1ccc(CCC(OC(=O)[C@@H]2CCCCN2C(=O)[C@H](CC2CC2)c2cc(OC)c(OC)c(OC)c2)c2cccc(OCC(=O)O)c2)cc1OC` (stereo partly drawn) returned an IC50 of 126 nM.

Regarding `COc1ccc(CCC(OC(=O)[C@@H]2CCCCN2C(=O)[C@H](c2ccccc2)C(C)C)c2cccc(OCC(=O)O)c2)cc1OC` (stereo partly drawn), the IC50 was found to be 150 nM.

For `CC[C@@H](C(=O)N1CCCC[C@H]1C(=O)OC(CCc1ccc(OC)c(OC)c1)c1cccc(OCC(=O)O)c1)c1ccccc1` (stereo partly drawn), the IC50 came out at 133 nM.

`COc1ccc(CCC(OC(=O)[C@@H]2CCCCN2C(=O)[C@@H](c2cc(OC)c(OC)c(OC)c2)C(C)C)c2cccc(OCC(=O)O)c2)cc1OC` (stereo partly drawn) returned an IC50 of 65 nM.

`COc1ccc(CCC(OC(=O)[C@@H]2CCCCN2C(=O)[C@@H](CC2CC2)c2cc(OC)c(OC)c(OC)c2)c2cccc(OCC(=O)O)c2)cc1OC` (stereo partly drawn) gave an IC50 of 4.4 nM.

Compound `CCC[C@@H](C(=O)N1CCCC[C@H]1C(=O)OC(CCc1ccc(OC)c(OC)c1)c1cccc(OCC(=O)O)c1)c1cc(OC)c(OC)c(OC)c1` (stereo partly drawn) came in with an IC50 of 43 nM.

As for `COc1ccc(CCC(OC(=O)[C@@H]2CCCCN2C(=O)[C@H](c2cc(OC)c(OC)c(OC)c2)C(C)C)c2cccc(OCC(=O)O)c2)cc1OC` (stereo partly drawn), the IC50 amounted to 5.8 nM.

Compound `COc1ccc(CCC(OC(=O)[C@@H]2CCCCN2C(=O)[C@@H](c2ccccc2)C(C)C)c2cccc(OCC(=O)O)c2)cc1OC` (stereo partly drawn) yielded an IC50 of 19 nM.

For the compound `C=CC[C@H](C(=O)N1CCCC[C@H]1C(=O)OC(CCc1ccc(OC)c(OC)c1)c1cccc(OCC(=O)O)c1)c1cc(OC)c(OC)c(OC)c1` (stereo partly drawn), the IC50 turned out to be 1.5 nM.

Regarding `COc1ccc(CC[C@@H](OC(=O)[C@@H]2CCCCN2C(=O)Cc2ccccc2)c2cccc(OCC(=O)O)c2)cc1OC`, the IC50 was determined as 1530 nM. Compared with the last compound, the IC50 is about 1000-fold higher.

`COc1ccc(CCC(OC(=O)[C@@H]2CCCCN2C(=O)[C@H](C)c2ccccc2)c2cccc(OCC(=O)O)c2)cc1OC` (stereo partly drawn): the IC50 came to 590 nM. This IC50 is about 2.6-fold lower than that of the compound before.

As to `CC[C@@H](C(=O)N1CCCC[C@H]1C(=O)OC(CCc1ccc(OC)c(OC)c1)c1cccc(OCC(=O)O)c1)c1cc(OC)c(OC)c(OC)c1` (stereo partly drawn), the IC50 was 187 nM.

Take `COc1ccc(CCC(OC(=O)[C@@H]2CCCCN2C(=O)C(c2ccccc2)c2ccccc2)c2cccc(OCC(=O)O)c2)cc1OC` (stereo partly drawn): the IC50 was 273 nM.

The record behind these values is ChEMBL document CHEMBL1132977 (J Med Chem, 2000).
